PMC6443933, “Antagonizing Retinoic Acid-Related-Orphan Receptor Gamma Activity Blocks the T Helper 17/Interleukin-17 Pathway Leading to Attenuated Pro-inflammatory Human Keratinocyte and Skin Responses” (Frontiers in Immunology, 2019)

Tests used:
[1] = tested on: HUT78 T-cells stably expressing full-length eGFP-RORγt; experiment: IL-17A / IL-2 production by RORγt transduced HUT78 T-cell line; format: cell-based, human
[2] = target: T1, RORγt-LBD (Homo sapiens, UniProt P51449); experiment: RORγt-LBD/GAL4 transactivation reporter gene assay in Jurkat T-cells; format: cell-based
T1 construct: luciferase reporter gene transcription is driven by the GAL4-RORγt-LBD fusion construct; expressed in transfected cells; host or cells: Jurkat cells stably carrying pGL4.35 (9 x GAL4 sites, luciferase)
T1 sequence (P51449 269-508 limits assumed): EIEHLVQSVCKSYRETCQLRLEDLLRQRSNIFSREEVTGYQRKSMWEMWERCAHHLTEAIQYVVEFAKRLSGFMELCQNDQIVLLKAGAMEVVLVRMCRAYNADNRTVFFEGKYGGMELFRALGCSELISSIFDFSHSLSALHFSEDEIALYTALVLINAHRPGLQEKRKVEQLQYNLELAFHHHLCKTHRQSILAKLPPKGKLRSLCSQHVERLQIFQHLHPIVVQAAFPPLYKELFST
Protocol: Selectivity against other ROR family members was assessed in a GAL4 reporter gene assay as previously described ([44]). Briefly, Jurkat cells stably expressing the pGL4.35 plasmid (Promega) containing nine GAL4 binding sites inducing the transcription of the luciferase reporter gene were transiently transfected with the human RORα, RORβ or RORγt-LBD/GAL4-DBD constructs. After 24 h post-transfection, cells were incubated with Cpd A for an additional 24 h before luciferase activity was determined using an EnVision Multilabel Plate Reader (Perkin Elmer).

[3] = tested on: skin-resident immunocompetent cells in human skin biopsies; experiment: Ex vivo full-thickness human skin biopsy culture with Th17-inducing cocktail
Protocol: Full-thickness skin punch biopsies (8 mm diameter) were taken from surgical discards. Briefly, subcutaneous fat was removed from the skin ranging in size between 150 and 200 cm^2 and 8 mm punches were obtained. Samples were incubated in IMDM medium supplemented with Glutamax, 10% FCS, 1% non-essential amino acids, 1 mM Sodium pyruvate, Penicillin/Streptomycin and Amphotericin B (2.5 μg/ml). Incubations were done in the presence of various concentrations of Cpd A or DMSO vehicle control together with a Th17-inducing cocktail consisting of IL-6 (20 ng/ml), TGF-β1 (5 ng/ml), IL-1β (10 ng/ml), IL-23 (10 ng/ml), anti-IL-4/IFNγ (5 μg/ml), and anti-CD3/CD28 antibodies (1 μg/ml). On day 4, supernatants were harvested and analyzed for IL-17 cytokine expression, whereas skin punch biopsies were snap frozen, stored at −80°C and further processed for qRT-PCR analysis.
Total RNA from human Th17 cells (6 × 10^5 cells), RORγt-RORE HUT78 cells (4 × 10^5 cells) and HaCaT cells (6 × 10^4 cells) was extracted using RNeasy kit including a DNAse I digestion step according to the manufacturer‘s protocol (Qiagen). […] Quantitative RT-PCR analysis was performed using a TaqManViiA7 (Applied Biosystems). […]

[4] = tested on: RORγt; experiment: Binding of transcription/co-factors to RORγt or RORE oligonucleotides after treatment (data not shown); format: cell-based
[5] = tested on: total CD4+ T-cells; experiment: Intracellular FACS of IL-17A/IFN-γ-producing CD4+ T-cells after Th17 polarization; format: cell-based, human; details: 3-day Th17 differentiation
Protocol: Total, naive and memory CD4^+ T cells were isolated from Peripheral blood mononuclear cells (PBMCs) from healthy volunteers by density gradient centrifugation using Ficoll Paque (GE). Total, naive or memory CD4^+ T-cells were prepared by immunomagnetic separation using the respective CD4^+ T-cell enrichment kits resulting in untouched highly purified subsets (EasySep™, Stem Cell). Purity was assessed by flow cytometry and was between 95 and 98% for the total CD4^+ T-cells. The purity of naive (CD45RA^+CD45RO^−) and memory (CD45RA^−CD45RO^+) CD4^+T-cells ranged between 95 and 98%, respectively. For T-cell stimulation experiments, cells were treated as previously published ([44]). Briefly, T-cells were stimulated with plate-bound monoclonal antibodies against CD3 (1 μg/ml, clone OKT-3, BioXcell) and CD28 (1 μg/ml, clone CD28.2, BioLegend). For Th17 polarization assays, IL-6 (20 ng/ml), TGF-β1 (5 ng/ml), IL-1β (10 ng/ml), and IL-23 (10 ng/ml) were added. For Th1 polarization assays, IL-12 (10 ng/ml) and anti-IL-4 antibody (5 μg/ml), for Th2 polarizations, IL-4 (10 ng/ml) and anti-IFN-γ antibody (5 μg/ml) were added. For Th0 polarization assays, cells were only stimulated with CD3 and CD28 antibodies. […] Cytokine concentrations were quantified by ELISA according to the manufacturer's instructions (eBioscience or BioLegend). […]

Cc1ccc(C(=O)Nc2cn3ccnc3c(CN3CCN(c4noc(C(C)(C)C)n4)[C@@H](C)C3)c2C)cn1 [Cpd A, (S)-N-(8-((4-(5-(tert-butyl)-1,2,4-oxadiazol-3-yl)-3-methylpiperazin-1-yl)methyl)-7-methylimidazo[1,2-a]pyridin-6-yl)-6-methylnicotinamide] was tested, and the IC50 ([1]; Homo sapiens, PMA plus anti-CD3, 48 h, ELISA) was 27 nM, the IL-2 cytokine production ([1]; PMA plus anti-CD3, 48 h, ELISA) was “not affected” and the “attenuation of IL-17A production” value ([1]; concentration-dependent) was “complete attenuation”. For the same compound, the “inhibition of GAL4 promoter activity” value [2] was “complete inhibition”, the IC50 ([2]; luciferase, 24 h with compound) was 95 nM and the “h-BD2 (DEFB4A) gene expression in skin punches” value [3] was “significantly down-regulated”. For the same compound, the “IL-17A secretion by skin-resident immunocompetent cells” value ([3]; ex vivo skin punches, various concentrations) was “concentration-dependent inhibition”, the “binding of TAZ, steroid receptor co-activators, p300, HIF-1α, Runx to RORγt or RORE oligonucleotides” value [4] was “remained intact” and the “frequencies of IFN-γ+ cells” value [5] was “not affected”. For the same compound, the “frequencies of IL-17A+ cells within the CD4+ T-cell population” value [5] was “reduced”.
